Test results reported in US20250360235A1, “RADI[…] AND METHOD FOR RADIOLABELLING” (Telix Innovations SA, priority 2024, published 2025).

Assay: Radiochemical purity by iTLC over time after radiolabelling
Type: physicochemical
Procedure: Table 1 to Table 5 show the results of various radiolabelling experiments on radiochemical purity and the chelation yield. The radiolabelling experiments in the tables are carried out as described in: • Example 1 for when the gallium-68 source is GE Liquid target generator and EZAG GalliaPharm generator; • Example 2 for when the gallium-68 source is IRE Galli Eo generator; • Example 3 for when the gallium-68 source is GE solid target generator;
However, the experiments were carried out with the amount of ascorbic acid as indicated in the Tables 1 to 5, and the activity as indicated in the Tables 1 to 5. Radiochemical purities were measured at various times (T0, T1, T4, T6) after the radiolabelled experiments have been conducted.
The kits of Example 1, Example 2 or Example 3, with amounts of ascorbic acid as set out in Table 7 were used in the experiments for the ascorbic acid bracketing matrix. Three strengths of [^68Ga]Ga-PSMA-11 will be tested, i.e. 50 mCi/ml, 7 mCi/ml and 1 mCi/ml. Radiochemical purity was determined at different time points (TO, T1, T4 or T6), as set out in Table 7.

[1] = 1 mg ascorbic acid, 58.7-71.1 mCi, 7.47-8.99 mCi/mL, GE Liquid target, average of 3, T0
[2] = 1 mg ascorbic acid, 58.7-71.1 mCi, 7.47-8.99 mCi/mL, GE Liquid target, average of 3, T4 (4 h)
[3] = 1 mg ascorbic acid, 58.7-71.1 mCi, 7.47-8.99 mCi/mL, GE Liquid target, n=3, T0
[4] = 1 mg ascorbic acid, 58.7-71.1 mCi, 7.47-8.99 mCi/mL, GE Liquid target, n=3, T4 (4 h)
[5] = 2.5 mg ascorbic acid, 49.9-76.9 mCi, 6.31-9.72 mCi/mL, GE Liquid target, average of 3, T0
[6] = 2.5 mg ascorbic acid, 49.9-76.9 mCi, 6.31-9.72 mCi/mL, GE Liquid target, average of 3, T4 (4 h)
[7] = 2.5 mg ascorbic acid, 49.9-76.9 mCi, 6.31-9.72 mCi/mL, GE Liquid target, n=3, T0
[8] = 2.5 mg ascorbic acid, 49.9-76.9 mCi, 6.31-9.72 mCi/mL, GE Liquid target, n=3, T4 (4 h)
[9] = 5 mg ascorbic acid, 60-69.9 mCi, 7.61-8.81 mCi/mL, 3 × GE Liquid Target, 3 × EZAG GalliaPharm, average of 6, T0
[10] = 5 mg ascorbic acid, 60-69.9 mCi, 7.61-8.81 mCi/mL, 3 × GE Liquid Target, 3 × EZAG GalliaPharm, average of 6, T4 (4 h)
[11] = 5 mg ascorbic acid, 60-69.9 mCi, 7.61-8.81 mCi/mL, 3 × GE Liquid Target, 3 × EZAG GalliaPharm, n=6, T0
[12] = 5 mg ascorbic acid, 60-69.9 mCi, 7.61-8.81 mCi/mL, 3 × GE Liquid Target, 3 × EZAG GalliaPharm, n=6, T4 (4 h)
[13] = 10 mg ascorbic acid, 458-500 mCi, 43.4-47.3 mCi/mL, GE Solid Target, average of 3, T0
[14] = 10 mg ascorbic acid, 458-500 mCi, 43.4-47.3 mCi/mL, GE Solid Target, average of 3, T4 (4 h)
[15] = 10 mg ascorbic acid, 458-500 mCi, 43.4-47.3 mCi/mL, GE Solid Target, n=3, T0
[16] = 10 mg ascorbic acid, 458-500 mCi, 43.4-47.3 mCi/mL, GE Solid Target, n=3, T4 (4 h)
[17] = 10 mg ascorbic acid, 514-520 mCi, 49.0-66.1 mCi/mL, GE Solid Target, average of 3, T0
[18] = 10 mg ascorbic acid, 514-520 mCi, 49.0-66.1 mCi/mL, GE Solid Target, average of 3, T6 (6 h)
[19] = 10 mg ascorbic acid, 514-520 mCi, 49.0-66.1 mCi/mL, GE Solid Target, n=3, T0
[20] = 10 mg ascorbic acid, 514-520 mCi, 49.0-66.1 mCi/mL, GE Solid Target, n=3, T6 (6 h)

O=C([O-])CN(CCN(CC(=O)[O-])Cc1cc(CCC(=O)NCCCCCC(=O)NCCCC[C@H](NC(=O)N[C@@H](CCC(=O)O)C(=O)O)C(=O)O)ccc1[O-])Cc1cc(CCC(=O)O)ccc1[O-].[68Ga+3].[OH3+] [[^68Ga]PSMA-11, gallium-68 radiolabelled Glu-urea-Lys-HBED-CC (gozetotide or PSMA-11)]
0%: Radiochemical Purity (iTLC) Free and Colloidal Ga-68 (%) [1] | Radiochemical Purity (iTLC) Free and Colloidal Ga-68 (%) [2] | Radiochemical Purity (iTLC) Free and Colloidal Ga-68 (%) [5] | Radiochemical Purity (iTLC) Free and Colloidal Ga-68 (%) [6] | Radiochemical Purity (iTLC) Free and Colloidal Ga-68 (%) [9] | Radiochemical Purity (iTLC) Free and Colloidal Ga-68 (%) [10] | Radiochemical Purity (iTLC) Free and Colloidal Ga-68 (%) [13] | Radiochemical Purity (iTLC) Free and Colloidal Ga-68 (%) [14] | Radiochemical Purity (iTLC) Free and Colloidal Ga-68 (%) [17] | Radiochemical Purity (iTLC) Free and Colloidal Ga-68 (%) [18] | Radiochemical Purity (iTLC) Free and Colloidal Ga-68 (%) (15 mg ascorbic acid, 10.0-18.4 mCi, 0.95-1.77 mCi/mL, 1 × EZAG GalliaPharm, 2 × IRE Galli Eo, average of 3, T0)
100%: Radiochemical Purity (iTLC) Ga-68 PSMA-11 (%) [1] | Radiochemical Purity (iTLC) Ga-68 PSMA-11 (%) [2] | Radiochemical Purity (iTLC) Ga-68 PSMA-11 (%) [5] | Radiochemical Purity (iTLC) Ga-68 PSMA-11 (%) [6] | Radiochemical Purity (iTLC) Ga-68 PSMA-11 (%) [9] | Radiochemical Purity (iTLC) Ga-68 PSMA-11 (%) [10] | Radiochemical Purity (iTLC) Ga-68 PSMA-11 (%) [13] | Radiochemical Purity (iTLC) Ga-68 PSMA-11 (%) [14] | Radiochemical Purity (iTLC) Ga-68 PSMA-11 (%) [17] | Radiochemical Purity (iTLC) Ga-68 PSMA-11 (%) [18]
C (C = conforms to specifications): Radiochemical Purity (iTLC) Free and Colloidal Ga-68 (%) [3] | Radiochemical Purity (iTLC) Ga-68 PSMA-11 (%) [3] | Radiochemical Purity (iTLC) Free and Colloidal Ga-68 (%) [4] | Radiochemical Purity (iTLC) Ga-68 PSMA-11 (%) [4] | Radiochemical Purity (iTLC) Free and Colloidal Ga-68 (%) [7] | Radiochemical Purity (iTLC) Ga-68 PSMA-11 (%) [7] | Radiochemical Purity (iTLC) Free and Colloidal Ga-68 (%) [8] | Radiochemical Purity (iTLC) Ga-68 PSMA-11 (%) [8] | Radiochemical Purity (iTLC) Free and Colloidal Ga-68 (%) [11] | Radiochemical Purity (iTLC) Ga-68 PSMA-11 (%) [11] | Radiochemical Purity (iTLC) Free and Colloidal Ga-68 (%) [12] | Radiochemical Purity (iTLC) Ga-68 PSMA-11 (%) [12] | Radiochemical Purity (iTLC) Free and Colloidal Ga-68 (%) [15] | Radiochemical Purity (iTLC) Ga-68 PSMA-11 (%) [15] | Radiochemical Purity (iTLC) Free and Colloidal Ga-68 (%) [16] | Radiochemical Purity (iTLC) Ga-68 PSMA-11 (%) [16] | Radiochemical Purity (iTLC) Free and Colloidal Ga-68 (%) [19] | Radiochemical Purity (iTLC) Ga-68 PSMA-11 (%) [19] | Radiochemical Purity (iTLC) Free and Colloidal Ga-68 (%) [20] | Radiochemical Purity (iTLC) Ga-68 PSMA-11 (%) [20]
